Columns and labels:
GAK = target: T1, GAK (Homo sapiens, UniProt O14976); assay: Expression proteomics in THP-1 cells, GAK level; type: cell-based; details: GAK protein log2 fold change, 24 h, 1.0 μM
T1 construct: endogenous in cells; host or cells: THP-1
T1 sequence (O14976 1-1311): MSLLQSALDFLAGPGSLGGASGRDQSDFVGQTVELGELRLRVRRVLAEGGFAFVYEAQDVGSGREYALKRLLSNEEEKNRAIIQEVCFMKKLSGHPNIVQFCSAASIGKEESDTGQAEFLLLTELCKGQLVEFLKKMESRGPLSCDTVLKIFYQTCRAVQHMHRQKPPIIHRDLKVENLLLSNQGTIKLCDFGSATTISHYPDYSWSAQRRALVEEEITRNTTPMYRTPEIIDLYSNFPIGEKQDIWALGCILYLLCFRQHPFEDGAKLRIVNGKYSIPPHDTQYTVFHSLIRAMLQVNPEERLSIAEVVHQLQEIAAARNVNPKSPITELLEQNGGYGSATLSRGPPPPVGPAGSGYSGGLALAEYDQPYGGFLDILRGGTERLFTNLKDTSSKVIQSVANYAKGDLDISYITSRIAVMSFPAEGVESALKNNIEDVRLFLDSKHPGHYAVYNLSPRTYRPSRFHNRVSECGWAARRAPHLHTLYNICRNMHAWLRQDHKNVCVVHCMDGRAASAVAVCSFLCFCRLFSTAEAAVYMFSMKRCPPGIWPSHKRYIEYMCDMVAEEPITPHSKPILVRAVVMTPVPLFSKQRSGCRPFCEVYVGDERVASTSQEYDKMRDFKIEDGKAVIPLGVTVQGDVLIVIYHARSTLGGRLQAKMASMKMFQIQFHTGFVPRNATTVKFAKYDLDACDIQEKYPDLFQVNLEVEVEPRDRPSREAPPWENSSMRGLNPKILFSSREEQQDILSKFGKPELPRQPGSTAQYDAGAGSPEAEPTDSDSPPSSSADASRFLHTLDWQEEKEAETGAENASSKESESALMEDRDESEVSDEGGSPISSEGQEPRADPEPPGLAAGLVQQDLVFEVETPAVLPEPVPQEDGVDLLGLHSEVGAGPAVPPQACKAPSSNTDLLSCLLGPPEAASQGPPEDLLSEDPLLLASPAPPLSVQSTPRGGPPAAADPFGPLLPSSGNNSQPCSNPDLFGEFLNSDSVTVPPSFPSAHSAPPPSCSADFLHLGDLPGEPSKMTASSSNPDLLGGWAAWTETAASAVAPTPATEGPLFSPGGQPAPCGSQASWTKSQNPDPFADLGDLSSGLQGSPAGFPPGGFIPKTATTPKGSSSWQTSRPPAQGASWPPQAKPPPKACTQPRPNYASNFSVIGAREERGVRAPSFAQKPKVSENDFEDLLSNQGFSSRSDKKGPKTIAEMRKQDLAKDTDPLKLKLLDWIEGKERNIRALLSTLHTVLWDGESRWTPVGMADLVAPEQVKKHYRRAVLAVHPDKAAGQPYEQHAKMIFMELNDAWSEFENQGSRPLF
Procedure: (§1) THP-1 cells were seeded at a concentration of 3×10^6 cells in T175 flasks with 60 mL growth medium (RPM11640+10% FBS). […] of a 10× compound solution prepared in growth medium (DMSO), IAP PROTAC) was added and the cells were treated for the indicated time points (6 or 24 h) at 37° C., 5% CO2. For harvesting the cells were collected into falcon tubes on ice, centrifuged and washed twice in cold PBS (Life technologies). After the last washing step the supernatant was removed and the pellets were snap-frozen in liquid N2 and stored at −80° C. and lysed in 2% SDS for 3 min at 95° C. in a thermomixer (Thermo Fisher Scientific), followed by digestion of DNA with Benzonase at 37° C. for 1.5 h. Lysate was cleared by centrifugation an protein concentration in supernatant was determined by BCA assay.
(§2) Leukemia 25, 89-100 (2011).
(§3) Samples were dried in vacuo and resuspended in 0.05% trifluoroacetic acid in water. […]
(§4) Reporter ion intensities were read from raw data and multiplied with ion accumulation times (the unit is milliseconds) so as to yield a measure proportional to the number of ions;
(§5) Nat Biotech 29, 255-265 (2011). this measure is referred to as ion area Savitski, M. M. et al. Delayed Fragmentation and Optimized Isolation Width Settings for Improvement of Protein Identification and Accuracy of Isobaric Mass Tag Quantification on Orbitrap-Type Mass Spectrometers. […]

PTK2B = target: T2, PTK2B (Homo sapiens, UniProt Q14289); assay: Expression proteomics in THP-1 cells, PTK2B level; type: cell-based; details: PTK2B protein log2 fold change, 24 h, 1.0 μM
T2 construct: endogenous in cells; host or cells: THP-1
T2 sequence (Q14289 whole entry): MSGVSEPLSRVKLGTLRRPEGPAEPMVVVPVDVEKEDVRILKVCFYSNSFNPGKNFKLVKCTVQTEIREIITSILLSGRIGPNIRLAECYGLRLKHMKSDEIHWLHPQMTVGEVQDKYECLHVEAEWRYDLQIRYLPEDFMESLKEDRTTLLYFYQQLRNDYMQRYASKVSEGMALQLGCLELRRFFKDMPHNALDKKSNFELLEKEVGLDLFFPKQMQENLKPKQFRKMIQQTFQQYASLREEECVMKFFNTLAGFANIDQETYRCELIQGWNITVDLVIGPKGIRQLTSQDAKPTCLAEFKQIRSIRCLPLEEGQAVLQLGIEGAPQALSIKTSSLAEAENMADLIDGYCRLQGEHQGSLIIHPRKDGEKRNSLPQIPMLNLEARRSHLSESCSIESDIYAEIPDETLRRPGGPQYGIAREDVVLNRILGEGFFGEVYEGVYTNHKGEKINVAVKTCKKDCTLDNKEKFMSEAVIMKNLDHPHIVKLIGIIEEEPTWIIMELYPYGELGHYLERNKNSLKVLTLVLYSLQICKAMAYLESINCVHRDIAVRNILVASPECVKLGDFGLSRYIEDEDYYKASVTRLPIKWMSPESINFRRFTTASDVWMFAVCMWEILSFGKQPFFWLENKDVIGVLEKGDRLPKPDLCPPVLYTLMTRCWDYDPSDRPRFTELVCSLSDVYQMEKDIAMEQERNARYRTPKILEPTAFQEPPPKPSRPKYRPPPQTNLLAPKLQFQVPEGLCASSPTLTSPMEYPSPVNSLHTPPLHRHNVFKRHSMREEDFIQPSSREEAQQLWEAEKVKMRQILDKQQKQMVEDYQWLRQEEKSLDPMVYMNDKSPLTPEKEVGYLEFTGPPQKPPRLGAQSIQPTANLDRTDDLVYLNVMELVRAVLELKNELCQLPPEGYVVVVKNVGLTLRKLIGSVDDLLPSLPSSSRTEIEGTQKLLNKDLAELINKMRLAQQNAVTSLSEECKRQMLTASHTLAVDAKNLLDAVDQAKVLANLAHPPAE
Procedure: as §1, §2, §3, §4, §5

log2fc_IAP_24 h_1.0 μM_n1 (GAK; replicate n1): −2.02
log2fc_IAP_24 h_1.0 μM_n2 (GAK; replicate n2): −2.39
log2fc_IAP_24 h_1.0 μM_n1 (PTK2B; replicate n1): −1.78
log2fc_IAP_24 h_1.0 μM_n2 (PTK2B; replicate n2): −2.06
SMILES: CNC(=O)c1ccccc1Nc1nc(Nc2ccc(N3CCN(CCOCCOCCOCCOc4ccc5c(c4)CN(C(=O)[C@@H](NC(=O)[C@H](C)NC)C(C)(C)C)[C@H](C(=O)N[C@@H]4CCCc6ccccc64)C5)CC3)cc2)ncc1Cl [IAP, (S)-7-(2-(2-(2-(2-(4-(4-((5-Chloro-4-((2-(methylcarbamoyl)phenyl)amino)pyrimidin-2-yl)amino)phenyl)piperazin-1-yl)ethoxy)ethoxy)ethoxy)ethoxy)-2-((S)-3,3-dimethyl-2-((S)-2-(methylamino)propanamido)butanoyl)-N-((R)-1,2,3,4-tetrahydronaphthalen-1-yl)-1,2,3,4-tetrahydroisoquinoline-3-carboxamide]

Source: patent US20190152946A1, “Novel Compounds” (GlaxoSmithKline Intellectual Property Development Limited, priority 2016, published 2019)
